# Test results from PubChem BioAssay AID1259407 (Chemical Carcinogenesis Research Information System (CCRIS), 2018).
# Calls of active or inactive are those of the source. How the calls were made is not given here.
# Test system: CCRIS mutagenicity, Ames/micronucleus/aberration tests
# Experiment: CCRIS mutagenicity studies
# [1] = Test System: AMES SALMONELLA TYPHIMURIUM, Strain/Indicator: TA98, Metabolic Activation: NONE, Method: STANDARD PLATE
# [2] = Test System: AMES SALMONELLA TYPHIMURIUM, Strain/Indicator: TA98, Metabolic Activation: RAT, LIVER, S-9, AROCLOR 1254, Method: STANDARD PLATE
structure (smiles),measurement,setting,value
CCBr,mutagenic call,"End Point: IN VITRO CHROMOSOMAL ABERRATIONS, Test System: CHO CELLS, Metabolic Activation: NONE",inactive; negative
same,mutagenic call,"End Point: IN VITRO CHROMOSOMAL ABERRATIONS, Test System: CHO CELLS, Metabolic Activation: RAT, LIVER, S-9, AROCLOR 1254",inactive; negative
same,mutagenic call,"End Point: In vitro Micronucleus, Test System: Chinese Hamster Ovary (CHO-WBL) cells, Metabolic Activation: None",inactive; negative
same,mutagenic call,"Test System: AMES SALMONELLA TYPHIMURIUM, Strain/Indicator: TA97, Metabolic Activation: NONE, Method: STANDARD PLATE",active; positive
same,mutagenic call,"Test System: AMES SALMONELLA TYPHIMURIUM, Strain/Indicator: TA97, Metabolic Activation: RAT, LIVER, S-9, AROCLOR 1254, Method: STANDARD PLATE",active; positive
same,mutagenic call,"Test System: AMES SALMONELLA TYPHIMURIUM, Strain/Indicator: TA98, Metabolic Activation: HAMSTER, LIVER, S-9, AROCLOR 1254, Method: DESICCATOR",inactive; negative
same,mutagenic call,"Test System: AMES SALMONELLA TYPHIMURIUM, Strain/Indicator: TA98, Metabolic Activation: NONE, Method: DESICCATOR",inactive; negative
same,mutagenic call,[1],inactive; negative
same,mutagenic call,"Test System: AMES SALMONELLA TYPHIMURIUM, Strain/Indicator: TA98, Metabolic Activation: RAT, LIVER, S-9, AROCLOR 1254, Method: DESICCATOR",inactive; negative
same,mutagenic call,[2],active; positive
same,mutagenic call,"Test System: AMES SALMONELLA TYPHIMURIUM, Strain/Indicator: TA100, Metabolic Activation: HAMSTER, LIVER, S-9, AROCLOR 1254, Method: DESICCATOR",active; positive
same,mutagenic call,"Test System: AMES SALMONELLA TYPHIMURIUM, Strain/Indicator: TA100, Metabolic Activation: NONE, Method: DESICCATOR",active; positive
same,mutagenic call,"Test System: AMES SALMONELLA TYPHIMURIUM, Strain/Indicator: TA100, Metabolic Activation: NONE, Method: STANDARD PLATE",inactive; negative
same,mutagenic call,"Test System: AMES SALMONELLA TYPHIMURIUM, Strain/Indicator: TA100, Metabolic Activation: RAT, LIVER, S-9, AROCLOR 1254, Method: DESICCATOR",active; positive
same,mutagenic call,"Test System: AMES SALMONELLA TYPHIMURIUM, Strain/Indicator: TA100, Metabolic Activation: RAT, LIVER, S-9, AROCLOR 1254, Method: STANDARD PLATE",active; positive
same,mutagenic call,"Test System: AMES SALMONELLA TYPHIMURIUM, Strain/Indicator: TA104, Metabolic Activation: NONE, Method: STANDARD PLATE",inactive; negative
same,mutagenic call,"Test System: AMES SALMONELLA TYPHIMURIUM, Strain/Indicator: TA104, Metabolic Activation: RAT, LIVER, S-9, AROCLOR 1254, Method: STANDARD PLATE",active; positive
CC(C)C(=O)N=c1sn(C(=O)C(C)C)c2ccc([N+](=O)[O-])cc12,mutagenic call,"Test System: AMES SALMONELLA TYPHIMURIUM, Strain/Indicator: TA100, Metabolic Activation: S-9, Method: STANDARD PLATE",active; positive
CC(C)(C)NC[C@H](O)COc1ccc(O)cc1C1CCCC1,mutagenic call,[1],inactive; negative
same,mutagenic call,[2],inactive; negative
[Ag],mutagenic call,"End Point: In vivo micronucleus, Test System: Bone marrow polychromatic erythrocytes, Species: Rat, Strain/Sex: Sprague-Dawley/Male and Female, Route: Oral",inactive; negative
COC(=O)C(Cl)CCC(Cl)CCCCCC(Cl)CCC(Cl)CCCCCl (centres undefined),mutagenic call,"Test System: AMES SALMONELLA TYPHIMURIUM, Strain/Indicator: TA97, Metabolic Activation: HAMSTER, LIVER, S-9, AROCLOR 1254 (10 OR 30%), Method: PREINCUBATION",inactive; negative
same,mutagenic call,"Test System: AMES SALMONELLA TYPHIMURIUM, Strain/Indicator: TA97, Metabolic Activation: NONE, Method: PREINCUBATION",inactive; negative
same,mutagenic call,"Test System: AMES SALMONELLA TYPHIMURIUM, Strain/Indicator: TA97, Metabolic Activation: RAT, LIVER, S-9, AROCLOR 1254 (10 OR 30%), Method: PREINCUBATION",inactive; negative
same,mutagenic call,"Test System: AMES SALMONELLA TYPHIMURIUM, Strain/Indicator: TA98, Metabolic Activation: HAMSTER, LIVER, S-9, AROCLOR 1254 (10 OR 30%), Method: PREINCUBATION",inactive; negative
same,mutagenic call,"Test System: AMES SALMONELLA TYPHIMURIUM, Strain/Indicator: TA98, Metabolic Activation: NONE, Method: PREINCUBATION",inactive; negative
same,mutagenic call,"Test System: AMES SALMONELLA TYPHIMURIUM, Strain/Indicator: TA98, Metabolic Activation: RAT, LIVER, S-9, AROCLOR 1254 (10 OR 30%), Method: PREINCUBATION",inactive; negative
same,mutagenic call,"Test System: AMES SALMONELLA TYPHIMURIUM, Strain/Indicator: TA100, Metabolic Activation: HAMSTER, LIVER, S-9, AROCLOR 1254 (10 OR 30%), Method: PREINCUBATION",inactive; negative
same,mutagenic call,"Test System: AMES SALMONELLA TYPHIMURIUM, Strain/Indicator: TA100, Metabolic Activation: NONE, Method: PREINCUBATION",inactive; negative
same,mutagenic call,"Test System: AMES SALMONELLA TYPHIMURIUM, Strain/Indicator: TA100, Metabolic Activation: RAT, LIVER, S-9, AROCLOR 1254 (10 OR 30%), Method: PREINCUBATION",inactive; negative
same,mutagenic call,"Test System: AMES SALMONELLA TYPHIMURIUM, Strain/Indicator: TA1535, Metabolic Activation: HAMSTER, LIVER, S-9, AROCLOR 1254 (10 OR 30%), Method: PREINCUBATION",inactive; negative
same,mutagenic call,"Test System: AMES SALMONELLA TYPHIMURIUM, Strain/Indicator: TA1535, Metabolic Activation: NONE, Method: PREINCUBATION",inactive; negative
same,mutagenic call,"Test System: AMES SALMONELLA TYPHIMURIUM, Strain/Indicator: TA1535, Metabolic Activation: RAT, LIVER, S-9, AROCLOR 1254 (10 OR 30%), Method: PREINCUBATION",inactive; negative
c1ccc2c(c1)-c1c3ccccc3cc3cc4ccccc4c-2c13,mutagenic call,"Test System: HUMAN H1A1V2 CELLS, Strain/Indicator: TK LOCUS, Metabolic Activation: NONE, Method: SUSPENSION/PLATE",active; positive
